Series [1] concerns HCV genotype Ib replicon in Huh-luc/neo-ET cells. It counts as cell-based, HCV genotype 1b. To be noted: for interaction: SPC3649 with 2-methyl cytidine.
Method: The anti-viral efficacy and cellular toxicity of non-transfected antimiR oligonucleotide in combination with approved and experimental anti-HCV therapeutics (e.g. BMS-790052) (or other NS5A inhibitors), was determined in the reporter cell line Huh-luc/neo-ET. This cell line harbors the persistently replicating I389luc-ubi-neo/NS3-37ET replicon containing the firefly luciferase gene-ubiquitin-neomycin phosphotransferase fusion protein and EMCV IRES driven NS3-5B HCV coding sequences containing the ET tissue culture adaptive mutations (E1202G, T1208I, and K1846T). Eight dilutions of non-transfected antimiR oligonucleotide (bracketing the calculated EC50) were evaluated in triplicate on duplicate sets of three plates with five dilutions of each of the control compounds (bracketing the calculated EC50). One set of plates was used for the determination of cellular toxicity and the other set of plates was used for the determination of anti-viral efficacy. The efficacy and toxicity results was quantified with firefly luciferase activity and XTT dye reduction, respectively, and the results of the assay is imported into the Prichard and Shipman MacSynergy II software program. The MacSynergy II analysis includes calculation of the dose response of the two (or more) compounds when used alone followed by calculation of the expected additive level of antiviral inhibition or toxicity when the compounds are used together based on the individual dose response curves. The expected level of activity at each of the concentration data points was compared to the experimentally determined antiviral activity in the assay. The expected activity was subtracted from the realized activity, yielding a negative, zero or positive value. […]
The combination antiviral assays were performed using the reporter cell line Huh-luc/neo-ET, which contains a bicistronic HCV genotype Ib replicon. Combination data were analyzed using MacSynergy II software at the 95%, confidence interval. […]
The next series relates to Huh-luc/neo-ET cells. How it is done:
Eight dilutions of non-transfected antimiR oligonucleotide (bracketing the calculated EC50) were evaluated in triplicate on duplicate sets of three plates with five dilutions of each of the control compounds (bracketing the calculated EC50). One set of plates was used for the determination of cellular toxicity and the other set of plates was used for the determination of anti-viral efficacy. The efficacy and toxicity results was quantified with firefly luciferase activity and XTT dye reduction, respectively, and the results of the assay is imported into the Prichard and Shipman MacSynergy II software program. […] The expected level of activity at each of the concentration data points was compared to the experimentally determined antiviral activity in the assay. The expected activity was subtracted from the realized activity, yielding a negative, zero or positive value. […]
The cells were treated with trypsin and enumerated by staining with trypan blue and seeded into 96-well tissue culture plates at a cell culture density 5.0×10^3 cells per well in a volume of 85 f.IL per well and incubated at […] in an environment of 5% CO2 for 24 hours. […] Following incubation, the plates were assessed for anti-HCV activity by measurement of luciferase reporter activity and cellular cytotoxicity by XTT staining.

The subject of series [2] is HCV genotype 1b replicon NS3 A156T. It counts as cell-based. The settings on record: EC50 mutant / EC50 wild-type; mean of two experiments (individual values); 72 hours. How it is done:
(§1) The objective of this study was to evaluate the in vitro antiviral activity of miravirsen (SPC3649) against wild-type HCV genotype Ib replicon and NS3, NS5A and NS5B drug-resistant HCV genotype 1 b replicons in transient transfection assays utilizing Huh 7 cells. Method: The in vitro antiviral of miravirsen was evaluated against wild-type HCV genotype 1 b replicon and HCV genotype 1 b replicons constructed to contain key amino acid substitutions in NS3 protease (A156T, R155K), NS5B polymerase (S282T, M423I) and NS5A protein (Y93H) in transient transfection assays utilizing Huh 7 cells. […] Huh 7 cells were transfected with either the wild-type or the mutant RNA constructs by electroporation. Luciferase activity was measured 72 hours after compound treatment and EC50 values determined from dose-response curves. Fold resistance was expressed as the ratio of the EC50 for mutant HCV replicon to the EC50 for wild-type HCV replicon.
(§2) The in vitro antiviral of miravirsen was evaluated against wild-type HCV genotype Ib replicon and HCV replicons constructed to contain key amino acid substitutions in NS3 protease (A156T, R155K), NS5B polymerase (S282T, M423I) and NS5A protein (Y93H) in transient transfection assays. […] Huh 7 cells were transfected with either the wild type or the mutant RNA constructs by electroporation. Luciferase activity was measured 72 hours after compound treatment and EC50 values determined from dose-response curves. Fold resistance was expressed as the ratio of the EC50 for mutant HCV replicon to the EC50 for wild-type HCV replicon. Results are expressed as the mean of two individual experiments. In an initial set of experiments, the standard protocol was modified by adding compounds 24 hours after electroporation. […] In a third experiment cells were pretreated with miravirsen for 24 hours before electroporation with wild-type RNA constructs to determine if preincubation could result in increased miravirsen antiviral activity.

Series [3] concerns HCV genotype 1b replicon NS3 R155K. The class given is cell-based. To be noted: EC50 mutant / EC50 wild-type; mean of two experiments (individual values); 72 hours. How it is done: as §1, §2
For series [4], the system named is HCV genotype 1b replicon NS5B S282T. The class given is cell-based. The settings on record: EC50 mutant / EC50 wild-type; mean of two experiments (individual values); 72 hours. On the procedure:
as §1, §2

The subject of series [5] is HCV genotype 1b replicon NS5B M423I. It counts as cell-based. The settings on record: EC50 mutant / EC50 wild-type; mean of two experiments (individual values); 72 hours. How it is done: as §1, §2
In series [6] the test system is HCV genotype 1b replicon NS5A Y93H. The class given is cell-based. The settings on record: EC50 mutant / EC50 wild-type; mean of two experiments (individual values); 72 hours. On the procedure: as §1, §2

Where two headings read alike, the source gives them in different places.

In the case of “5′-Ts·^oc^·sAs·^otsa^·s^mCs·^oTs·^oa^·stsAs·^otsGs·^oa^·s^mCs·^oA·^o-3′ [SPC4729]”, the “overall interaction (antiviral)” value in series [1] (ribavirin plus the named compound) is recorded as “antagonistic”. Also, the “Cytotoxicity, Synergy vol” value in the series with Huh-luc/neo-ET cells was 0.00/−44.3 μM^2%. Further, the “Cytotoxicity, Antag Vol” value in the series on Huh-luc/neo-ET cells (Ribavirin plus the named compound, 95% confidence level) is on record as 0.00/−44.3 μM^2%.
On to “5′-^mCs^ocsAs^otstsGs^oTs^ocsas^mCs^oas^mCs^ots^mCs^omCo-3′ (CCATTGTCACACTCC; all phosphorothioate, sugars by position and methylation of C not given here; further chemistry not fully specified) [miravirsen]”, for which the “Fold Resistance NS3 A156T” value in series [2] is 1.0 (1.4, 0.5) fold. The “Fold Resistance NS3 R155K” value in series [3] is 1.2 (1.9, 0.4) fold. The “Fold Resistance NS5B S282T” value in series [4] is 1.9 (2.6, 1.1) fold. The “Fold Resistance NS5B M423I” value in series [5] is 1.7 (2.3, 1.0) fold. Besides, the “Fold Resistance NS5A Y93H” value in series [6] is listed as 0.9 (0.8, 0.9) fold.
In the case of `C[C@@]1(O)[C@H](O)[C@@H](CO)O[C@H]1n1ccc(N)nc1=O` [2′-C-Methylcytidine], the values for the interaction entry in series [1] (third replicate) and in series [1] (two of the assay replicates) were “slightly antagonistic interaction” and “positive interactions”, respectively.
`CCC[C@H](NC(=O)[C@@H]1[C@H]2CCC[C@H]2CN1C(=O)[C@@H](NC(=O)[C@@H](NC(=O)c1cnccn1)C1CCCCC1)C(C)(C)C)C(=O)C(=O)NC1CC1` [Telaprevir, (1S,3aR,6aS)-2-[(2S)-2-[[(2S)-2-Cyclohexyl-2-(pyrazine-2-carbonylamino)acetyl]amino]-3,3-dimethylbutanoyl]-N-[(3S)-1-(cyclopropylamino)-1,2-dioxohexan-3-yl]-3,3a,4,5,6,6a-hexahydro-1H-cyclopenta[c]pyrrole-1-carboxamide]: the “Fold Resistance NS3 R155K” value in series [3] is given as 4.6 (5.0, 4.2) fold.
With `CC(C)(C)C#Cc1cc(N(C(=O)[C@H]2CC[C@H](C)CC2)[C@H]2CC[C@H](O)CC2)c(C(=O)O)s1` [VX-222], in series [5], the “Fold Resistance NS5B M423I” value was 4.4 (3.6, 5.2) fold.
